Data on two compounds can be found in ChEMBL document CHEMBL6120946, “From Hit to Lead: Discovery of First-In-Class Furanone Glycoside D228 Derived from Chimonanthus salicifolius for the Treatment of Inflammatory Bowel Disease” (J Med Chem, 2024).

Active and inactive are the calls of the source. No cut-off for these calls is given here.

Data set [1] deals with Mus musculus. The data set can be described thus: Antiinflammatory activity in DSS-induced male C57BL/6 mouse model of inflammatory bowel disease assessed as increase in colon length at 45 mg/kg/day, po via gavage measured upto 14 days relative to control. Format: functional. The note with it: time <= 14 day.
Data set [2] deals with Mus musculus. Put plainly: Antiinflammatory activity in male C57BL/6 mouse model of inflammatory bowel disease assessed as recovery of DSS-induced body weight loss at 40 mg/kg/day, po via gavage measured after 14 days relative to control. It is filed as functional. The following applies: time 14 day.
The subject of data set [3] is Mus musculus. Put plainly: Antiinflammatory activity in DSS-induced male C57BL/6 mouse model of inflammatory bowel disease assessed as downregulation of TRAF6 expression at 50 to 100 microM/Kg by Western blot analysis. Format: functional, organism-based. The following applies: dose 50-100 µM/Kg.
The subject of data set [4] is Mus musculus. The data set can be described thus: Antiinflammatory activity in DSS-induced male C57BL/6 mouse model assessed as effect on JNK phosphorylation level at 50 to 100 microM/Kg by Western blot analysis. It is filed as functional, organism-based. The note with it: dose 50-100 µM/Kg.
For data set [5], the system named is Mus musculus. The data set can be described thus: Antiinflammatory activity in DSS-induced male C57BL/6 mouse model assessed as inhibition of TNF-alpha level in colon at 50 to 100 microM/Kg. Format: functional, organism-based. The note with it: dose 50-100 µM/Kg.
For data set [6], the system named is Mus musculus. The data set can be described thus: Antiinflammatory activity in DSS-induced male C57BL/6 mouse model assessed as inhibition of IL-17A level in colon at 50 to 100 microM/Kg. Format: functional, organism-based. The note with it: dose 50-100 µM/Kg.
The test system of data set [7] is Mus musculus. Put plainly: Antiinflammatory activity in DSS-induced male C57BL/6 mouse model of inflammatory bowel disease assessed as inhibition of MPO expression at 50 to 100 microM/Kg, po by immunohistochemical analysis. Format: functional, organism-based. The following applies: dose 50-100 µM/Kg.
The nature of data set [8]: Acute toxicity in male Kunming mouse assessed as effect on spleen 5 g/Kg, po measured after 5 weeks. Format: organism-based. The following applies: in vivo, 5000 mg/kg, 840 h.
The nature of data set [9]: Acute toxicity in female Kunming mouse assessed as effect on heart 5 g/Kg, po measured after 5 weeks. The note with it: in vivo, 5000 mg/kg, 840 h. It is filed as organism-based.
A short description of data set [10]: Acute toxicity in female Kunming mouse assessed as effect on lung 5 g/Kg, po measured after 5 weeks. It is filed as organism-based. The note with it: in vivo, 5000 mg/kg, 840 h.
Data set [11] is described as follows: Toxicity in male Kunming mouse assessed as effect on spleen to body weight ratio at 100 to 500 mg/kg/day, po measured after 5 weeks. Format: organism-based. The following applies: in vivo, 840 h, dose 100-500 mg/kg/day.
A short description of data set [12]: Toxicity in male Kunming mouse assessed as effect on kidney to body weight ratio at 100 to 500 mg/kg/day, po measured after 5 weeks. It is filed as organism-based. The note with it: in vivo, 840 h, dose 100-500 mg/kg/day.
A short description of data set [13]: Toxicity in male Kunming mouse assessed as effect on lung at 100 to 500 mg/kg/day, po measured after 5 weeks by H and E staining based analysis. It is filed as organism-based. The following applies: in vivo, 840 h, dose 100-500 mg/kg/day.
A short description of data set [14]: Toxicity in male Kunming mouse assessed as effect on AST level in serum at 100 to 500 mg/kg/day, po measured after 5 weeks. Format: organism-based. The note with it: in vivo, 840 h, dose 100-500 mg/kg/day.
Data set [15] is described as follows: Toxicity in male Kunming mouse assessed as effect on TBIL level in serum at 100 to 500 mg/kg/day, po measured after 5 weeks. Format: organism-based. The following applies: in vivo, 840 h, dose 100-500 mg/kg/day.
Data set [16] can be described thus: Toxicity in male Kunming mouse assessed as effect on ALP level in serum at 100 to 500 mg/kg/day, po measured after 5 weeks. Format: organism-based. The following applies: in vivo, 840 h, dose 100-500 mg/kg/day.
Data set [17] in a line: Toxicity in male Kunming mouse assessed as effect on TG level in serum at 100 to 500 mg/kg/day, po measured after 5 weeks. It is filed as organism-based. The following applies: in vivo, 840 h, dose 100-500 mg/kg/day.
Data set [18] is described as follows: Toxicity in male Kunming mouse assessed as effect on K inorganic salt level in serum at 100 to 500 mg/kg/day, po measured after 5 weeks. It is filed as organism-based. The note with it: in vivo, 840 h, dose 100-500 mg/kg/day.
Data set [19] can be described thus: Toxicity in female Kunming mouse assessed as effect on heart to body weight ratio at 100 to 500 mg/kg/day, po measured after 5 weeks. The note with it: in vivo, 840 h, dose 100-500 mg/kg/day. Format: organism-based.
Data set [20] is described as follows: Toxicity in female Kunming mouse assessed as effect on spleen to body weight ratio at 100 to 500 mg/kg/day, po measured after 5 weeks. It is filed as organism-based. The following applies: in vivo, 840 h, dose 100-500 mg/kg/day.
The nature of data set [21]: Toxicity in female Kunming mouse assessed as effect on liver to body weight ratio at 100 to 500 mg/kg/day, po measured after 5 weeks. Format: organism-based. The note with it: in vivo, 840 h, dose 100-500 mg/kg/day.
The nature of data set [22]: Toxicity in female Kunming mouse assessed as effect on AST level in serum at 100 to 500 mg/kg/day, po measured after 5 weeks. It is filed as organism-based. The note with it: in vivo, 840 h, dose 100-500 mg/kg/day.
Data set [23] in a line: Toxicity in female Kunming mouse assessed as effect on BUN level in serum at 100 to 500 mg/kg/day, po measured after 5 weeks. It is filed as organism-based. The following applies: in vivo, 840 h, dose 100-500 mg/kg/day.
Data set [24] is described as follows: Toxicity in female Kunming mouse assessed as effect on TG level in serum at 100 to 500 mg/kg/day, po measured after 5 weeks. The note with it: in vivo, 840 h, dose 100-500 mg/kg/day. It is filed as organism-based.
Data set [25] can be described thus: Toxicity in female Kunming mouse assessed as effect on Cl inorganic salt level in serum at 100 to 500 mg/kg/day, po measured after 5 weeks. Format: organism-based. The following applies: in vivo, 840 h, dose 100-500 mg/kg/day.
In data set [26] the test system is Mus musculus. The data set can be described thus: Antiinflammatory activity in DSS-induced male C57BL/6 mouse model of inflammatory bowel disease assessed as increase in colon length at 60 mg/kg/day, po via gavage measured upto 14 days relative to control. Format: functional. The note with it: time <= 14 day.
The subject of data set [27] is Mus musculus. Put plainly: Antiinflammatory activity in DSS-induced male C57BL/6 mouse model of inflammatory bowel disease assessed as decrease in p38 phosphorylation level at 50 to 200 microM/Kg by Western blot analysis. Format: functional, organism-based. The note with it: dose 50-200 µM/Kg.
For data set [28], the system named is Mus musculus. The data set can be described thus: Antiinflammatory activity in DSS-induced male C57BL/6 mouse model assessed as inhibition of IL-22 level in colon at 50 to 200 microM/Kg. It is filed as functional, organism-based. The note with it: dose 50-200 µM/Kg.
Data set [29] relates to Mus musculus. The data set can be described thus: Antiinflammatory activity in DSS-induced male C57BL/6 mouse model of inflammatory bowel disease assessed as amelioration of infiltration of inflammatory cells at 50 to 200 microM/Kg by H and E staining based analysis. Format: functional, organism-based. The note with it: dose 50-200 µM/Kg.
Data set [30] concerns Mus musculus. Put plainly: Antiinflammatory activity in DSS-induced male C57BL/6 mouse model of inflammatory bowel disease assessed as inhibition of MPO expression at 50 to 200 microM/Kg, po by immunohistochemical analysis. It is filed as functional, organism-based. The note with it: dose 50-200 µM/Kg.
For data set [31], the species on record is Mus musculus. The data set can be described thus: Antiinflammatory activity in DSS-induced male C57BL/6 mouse model of inflammatory bowel disease assessed as reduction in TLR4 level. It is filed as functional, organism-based.
For data set [32], the species on record is Mus musculus. The data set can be described thus: Antiinflammatory activity in DSS-induced male C57BL/6 mouse model of inflammatory bowel disease assessed as reduction in TLR7 level. It is filed as functional, organism-based.
For data set [33], the species on record is Mus musculus. Put plainly: Antiinflammatory activity in DSS-induced male C57BL/6 mouse model of inflammatory bowel disease assessed as reduction in MYD88 level. It is filed as functional, organism-based.

`CC(=O)OC[C@H]1O[C@@H](OC2=C(C)OC(=C(C)C)C2=O)[C@H](OC(C)=O)[C@@H](OC(C)=O)[C@@H]1OC(C)=O`: the Activity in the data set with Mus musculus [1] is given as 91.4%; with Mus musculus [2], 49.1%; in data set [8], “Non-toxic”; in data set [9], “Non-toxic”; in data set [10], “Non-toxic”; in data set [11] it was “Non-toxic”. Also, the Activity entry in data set [12], in data set [13], in data set [14], in data set [15], in [16] and in data set [17] was “Non-toxic” each time. Besides, the Activity result in data set [18], in data set [19], in data set [20], in [21], in data set [22] and in [23] was “Non-toxic” throughout. Moreover, the Activity result in [24] and in data set [25] was “Non-toxic” in each case. For the same compound, the result in the data set with Mus musculus [3], in the data set with Mus musculus [5], with Mus musculus [6] and in the data set with Mus musculus [7] was Active. Further, the result in the data set with Mus musculus [4] was inactive.
For the compound `CC(C)=C1OC(C)=C(O[C@@H]2O[C@H](CO)[C@@H](O)[C@H](O)[C@H]2O)C1=O`, the Activity in the data set on Mus musculus [26] was 73.4%. The result with Mus musculus [27], in the data set with Mus musculus [28], in the data set with Mus musculus [29], in the data set with Mus musculus [30], in the data set filed under Mus musculus [31] and in the data set filed under Mus musculus [32] was Active. For the same compound, the result in the data set listed under Mus musculus [33] was Active.
